Source: patent publication US11666658B2, “Rifamycin analogs and antibody-drug conjugates thereof” (Regeneron Pharmaceuticals, Inc., priority 2018, dated 2023)

How the values were obtained:
[1] = test system: S. aureus MSRA strain NRS384; assay: S. aureus IV disseminated infection mouse model (4 day model, Balb/c mice), kidney burden; format: in vivo; conditions: 4 day infection model, mAb or conjugate 1 mg/kg, with vancomycin treatment, limit of detection 250 cfu
Description: S. aureus MSRA strain NRS384 was grown overnight in Tryptic soy broth (TSB) and sub-cultured to mid-logarithmic phase. Bacteria were then washed twice with PBS and resuspended in PBS at a concentration of 1.5×10^8 cfu/mL. […] Mice were monitored for weight loss and body conditioning score throughout the infection. […] For quantification, the kidneys were homogenized followed by enumeration of colony forming units through serial dilution in PBS and plating onto trypticase soy agar plates.

[2] = test system: S. aureus MSRA strain NRS384; assay: S. aureus IV advanced disseminated infection mouse model (8 day model, Balb/c mice), kidney burden; format: in vivo
Description: To test the efficacy of anti-S. aureus Ab-antibiotic ncADCs of the disclosure in combination therapy with standard of care vancomycin in vivo, two different 8 day intravenous disseminated infection models was performed. […] S. aureus MSRA strain NRS384 was grown overnight in Tryptic soy broth (TSB) and sub-cultured to mid-logarithmic phase. Bacteria were then washed twice with PBS and resuspended in PBS at a concentration of 1.5×10^8 cfu/mL. Balb/c mice were then infected intravenously through the tail vein with 100 uL of the bacterial suspension, for a final infectious dose of […]. In the first study, mice were treated either vancomycin alone, an isotype control antibody plus vancomycin, an isotype control Ab-ncADC (Isotype control-36) plus vancomycin, an anti-WTA antibody plus vancomycin, an anti-WTA Ab-Antibiotic ncADC (anti-WTA Ab-Antibiotic ncADC-36), or a different anti-WTA Ab-Antibiotic ncADC (anti-WTA Ab-Antibiotic ncADC-25) plus vancomycin. Mice were also treated either vancomycin alone, an isotype control antibody plus vancomycin, an isotype control Ab-Antibiotic ncADC (Isotype control Ab-Antibiotic ncADC-36) plus vancomycin, an anti-Protein A antibody plus vancomycin, or an anti-Protein A Ab-Antibiotic ncADC (anti-Protein A Ab-Antibiotic ncADC-36).
In the second study, mice were treated either vancomycin alone, an isotype control antibody plus vancomycin, an isotype control Ab-Antibiotic ncADC (Isotype control Ab-Antibiotic ncADC-36) plus vancomycin, a second isotype control Ab-Antibiotic ncADC (Isotype control Ab-Antibiotic ncADC-25) plus vancomycin, a third isotype control Ab-Antibiotic ncADC (Isotype control Ab-Antibiotic ncADC-21) plus vancomycin, an anti-WTA antibody plus vancomycin, an anti-WTA Ab-Antibiotic ncADC (anti-WTA Ab-Antibiotic ncADC-36), a second anti-WTA Ab-Antibiotic ncADC (anti-WTA Ab-Antibiotic ncADC-25) plus vancomycin, or a third anti-WTA Ab-Antibiotic ncADC (anti-WTA Ab-Antibiotic ncADC-21) plus vancomycin. In all studies, for treatment groups that included vancomycin, it was dosed from three to seven days post infection at 110 mg/kg subcutaneously twice daily. For treatment groups that included antibodies and ncADCs, they were administered four days after infection subcutaneously at 2 mg/kg for the first study or 5 mg/kg for the second study. A no treatment infected control and an uninfected control were included in each of the studies. Mice were monitored for weight loss and body conditioning score throughout the infection. At eight days post infection, mice were euthanized, and the S. aureus kidney burden was quantified. For quantification, the kidneys were homogenized followed by enumeration of colony forming units through serial dilution in PBS and plating onto trypticase soy agar plates. Data points represent the kidney burden from individual mice tested.

## CN[C@H](CC(C)C)C(=O)N[C@H]1C(=O)N[C@@H](CC(N)=O)C(=O)N[C@H]2C(=O)N[C@H]3C(=O)N[C@H](C(=O)N[C@H](C(=O)O)c4cc(O)cc(O)c4-c4cc3ccc4O)[C@H](O)c3ccc(c(Cl)c3)Oc3cc2cc(c3O[C@@H]2O[C@H](CO)[C@@H](O)[C@H](O)[C@H]2O[C@H]2C[C@](C)(N)[C@H](O)[C@H](C)O2)Oc2ccc(cc2Cl)[C@H]1O [vancomycin]
[1]
  Median cfu/kidney pair: 4.38E+05 cfu/kidney pair
[2]; Balb/c mice, 8 day model, first study (Table 37, anti-Protein A), mAb or conjugate 2 mg/kg, with vancomycin treatment
  Median cfu/kidney pair: 7.25E+06 cfu/kidney pair
[2]; Balb/c mice, 8 day model, second study (Table 38), mAb or conjugate 5 mg/kg, with vancomycin treatment
  Median cfu/kidney pair: 1.88E+06 cfu/kidney pair
[2]; first study, vancomycin alone 110 mg/kg subcutaneously twice daily day 3 to 7, kidneys at day 8
  reduction of S. aureus kidney burden: 1-2 logs
[2]; in vivo
  Median cfu/kidney pair: 7.25E+06 cfu/kidney pair
[2]; second study, vancomycin alone
  reduction of S. aureus kidney bacterial burden: 1-2 logs
